Laboratory results as given in article PMC7327383, “The affinity and selectivity of α‐adrenoceptor antagonists, antidepressants, and antipsychotics for the human α1A, α1B, and α1D‐adrenoceptors” (Pharmacology Research & Perspectives, 2020).
Read-outs that look alike come from different tables or passages of the source.

What was measured:
[1] = biological target: T1, full-length human α1D-adrenoceptor (Homo sapiens, UniProt P25100); test: [3H]prazosin whole-cell competition binding, CHO-α1D cells
T1 sequence (P25100 1-572): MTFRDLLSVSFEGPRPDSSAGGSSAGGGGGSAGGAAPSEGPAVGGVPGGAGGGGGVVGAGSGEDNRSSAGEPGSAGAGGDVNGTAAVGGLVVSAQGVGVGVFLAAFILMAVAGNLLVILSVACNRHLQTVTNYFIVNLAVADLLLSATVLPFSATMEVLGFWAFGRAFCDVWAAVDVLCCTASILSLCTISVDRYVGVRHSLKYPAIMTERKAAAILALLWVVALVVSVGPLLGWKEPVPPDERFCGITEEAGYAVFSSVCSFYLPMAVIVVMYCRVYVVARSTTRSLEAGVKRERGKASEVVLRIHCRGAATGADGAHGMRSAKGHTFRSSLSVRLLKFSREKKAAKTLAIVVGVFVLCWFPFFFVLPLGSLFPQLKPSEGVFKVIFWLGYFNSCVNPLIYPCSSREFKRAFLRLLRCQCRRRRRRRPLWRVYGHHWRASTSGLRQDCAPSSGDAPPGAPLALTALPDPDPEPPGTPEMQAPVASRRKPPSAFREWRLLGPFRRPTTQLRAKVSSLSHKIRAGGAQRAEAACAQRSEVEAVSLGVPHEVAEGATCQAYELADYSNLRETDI

human α1B-adrenoceptor = biological target: T2, human α1B-adrenoceptor (Homo sapiens, UniProt P35368); test: [3H]prazosin whole-cell competition binding, CHO-α1B cells; conditions: for Kd / Log KD α1B: single-component inhibition curve, given as log KD (negative), mean ± SE mean; for Kd: read-out: Log KD α1B (converted)
T2 construct: CHO cells stably expressing either the full‐length human α1A, α1B, or α1D‐adrenoceptor
T2 sequence (P35368 1-520): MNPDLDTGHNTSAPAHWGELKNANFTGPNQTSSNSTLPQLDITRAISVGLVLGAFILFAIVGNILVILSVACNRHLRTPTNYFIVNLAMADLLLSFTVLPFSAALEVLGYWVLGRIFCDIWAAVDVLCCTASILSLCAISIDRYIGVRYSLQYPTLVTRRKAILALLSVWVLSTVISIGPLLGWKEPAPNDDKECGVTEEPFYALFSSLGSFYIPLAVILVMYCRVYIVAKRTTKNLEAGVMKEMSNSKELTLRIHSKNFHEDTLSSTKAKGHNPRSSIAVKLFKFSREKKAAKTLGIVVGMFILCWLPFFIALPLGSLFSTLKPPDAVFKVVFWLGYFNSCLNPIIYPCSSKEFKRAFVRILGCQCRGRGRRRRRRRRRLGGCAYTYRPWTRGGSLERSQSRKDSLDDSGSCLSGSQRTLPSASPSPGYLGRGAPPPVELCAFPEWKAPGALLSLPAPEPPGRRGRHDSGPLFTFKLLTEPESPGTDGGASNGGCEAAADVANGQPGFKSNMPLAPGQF

human α1A-adrenoceptor = biological target: T3, human α1A-adrenoceptor (Homo sapiens, UniProt P35348); test: [3H]prazosin whole-cell competition binding, CHO-α1A cells
T3 construct: CHO cells stably expressing either the full‐length human α1A, α1B, or α1D‐adrenoceptor
T3 sequence (P35348 1-466): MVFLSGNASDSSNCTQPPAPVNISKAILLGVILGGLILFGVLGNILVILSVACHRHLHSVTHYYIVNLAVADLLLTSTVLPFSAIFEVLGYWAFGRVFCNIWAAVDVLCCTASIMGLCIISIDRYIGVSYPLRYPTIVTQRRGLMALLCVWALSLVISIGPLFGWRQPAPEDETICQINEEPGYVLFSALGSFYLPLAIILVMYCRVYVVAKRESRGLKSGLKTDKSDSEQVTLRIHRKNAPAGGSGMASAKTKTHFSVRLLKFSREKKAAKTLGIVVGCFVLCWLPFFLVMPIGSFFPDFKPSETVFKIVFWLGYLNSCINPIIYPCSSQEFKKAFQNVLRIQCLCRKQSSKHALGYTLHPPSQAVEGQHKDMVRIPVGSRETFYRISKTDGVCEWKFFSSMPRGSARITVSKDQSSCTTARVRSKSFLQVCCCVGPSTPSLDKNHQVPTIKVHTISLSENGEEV

[2] = ratio, 1 = no selectivity for a subtype over another
[3] = ratio of KD values, higher α1D affinity (site 1 KD)
[4] = ratio of KD values, higher α1A affinity, 1.0 under vs = none
[5] = ratio of KD values, printed under α1A = higher α1A affinity, 1.0 under vs = none
[6] = single-component inhibition curve, given as log KD (negative), mean ± SE mean, read-out: Log KD α1A (converted)
[7] = Log KD α1D, single-component inhibition curve, given as log KD (negative), mean ± SE mean
[8] = single-component inhibition curve, given as log KD (negative), mean ± SE mean

SMILES	selectivity α1B vs α1D (human α1B-adrenoceptor; [2])	Selectivity ratio α1B vs α1D [1, 3]	Selectivity ratio α1A vs α1D (human α1A-adrenoceptor; [4])	Selectivity ratio α1A vs α1B (human α1A-adrenoceptor; [5])	Kd (human α1A-adrenoceptor; [6])	Kd [1, 7]	Kd (human α1B-adrenoceptor)	other results
Cn1cc(C(F)(F)F)nc1-c1ccc(OCC(O)CNCCOc2ccc(O)c(C(N)=O)c2)cc1 (stereo not drawn) [CGP 20712A]	>9.1	–	–	–	–	–	–	Kd ([1]; Log KD α1D (apparent), apparent KD: maximum concentration inhibited most but not all specific binding, IC50 from extrapolated curve): 11 µM; Log IC50 α1B (human α1B-adrenoceptor; log IC50 bound): Log IC50>-4; Kd (human α1A-adrenoceptor; log KD from 3H-prazosin whole cell binding, CHO cells, mean ± s.e.mean, read-out: Log KD α1A (converted)): 11.7 µM; selectivity α1A vs 1D (human α1A-adrenoceptor; [2]): 1.1; selectivity α1A vs α1B (human α1A-adrenoceptor; [2]): >8.5
CCN1CCCC1CNC(=O)c1cc(S(N)(=O)=O)ccc1OC (stereo not drawn) [Sulpiride]	>4.6	>4.6 fold	6.9 fold	>32 fold	31.6 µM	–	–	Kd ([1]; Log KD α1D (apparent), app: top concentration inhibited most but not all specific binding, curve extrapolated): 219 ± 5.38 µM; selectivity α1A vs α1B (human α1A-adrenoceptor; [2]): >31
CN(C)CC/C=C1\c2ccccc2CSc2ccccc21 [Dosulepin]	2.0	2.0 fold	34 fold	68 fold	0.0776 µM	2.63 µM	5.25 µM	–
O=C1CCC(=O)N1C[C@H]1CC[C@H]2CN(c3ncccn3)CCN2C1 [Sunepitron]	4.8	4.8 fold	2.8 fold	13 fold	1.66 µM	4.68 µM	22.4 µM	–
CN1CCN(c2ccc(Nc3c4ccccc4nc4ccccc34)cc2)CC1 [JP1302]	–	–	–	–	–	–	–	Log KD α1D [1, 8]: −5.58 ± 0.09; Log KD α1B (human α1B-adrenoceptor): −5.46 ± 0.02; Log KD α1A (human α1A-adrenoceptor; [8]): −6.21 ± 0.04
CNCCC=C1c2ccccc2CCc2ccccc21 [Nortriptyline]	–	–	–	–	–	1.55 µM	0.851 µM	Selectivity ratio α1B vs α1D (human α1B-adrenoceptor): 1.8 fold; Selectivity ratio α1A vs α1B (human α1A-adrenoceptor): 47 fold; Selectivity ratio α1A vs α1D (human α1A-adrenoceptor): 85 fold; Kd (human α1A-adrenoceptor; Log KD α1A, single-component inhibition curve, given as log KD (negative), mean ± SE mean): 0.0182 µM
N=C(CC(O)COc1ccccc1-c1ccccc1)N1CCCCC1 (stereo not drawn) [AH11110A]	–	–	32 fold	6.8 fold	–	–	–	Log KD α1D [1, 8]: −4.98 ± 0.06; Selectivity ratio α1B vs α1D (human α1B-adrenoceptor; ratio of KD values, higher α1B affinity, 1.0 under vs = none): 4.7 fold; Log KD α1B (human α1B-adrenoceptor): −5.65 ± 0.09; Log KD α1A (human α1A-adrenoceptor; [8]): −6.48 ± 0.03
COc1ccc2cccc(CCNC(C)=O)c2c1 [Agomelatine]	–	–	–	>3.7 fold	–	–	–	IC50 [1]: > 31.6 µM; Log KD α1B: result in words (human α1B-adrenoceptor; no inhibition of [3H]prazosin binding at maximum concentration possible): No binding to 100 µmol/L; binding at α1B (human α1B-adrenoceptor; result in words in the Log KD α1B column): No binding to 100µM; binding at α1B (result in words) (human α1B-adrenoceptor; up to the maximum concentration): No binding to 100µM; Kd (human α1A-adrenoceptor; app: top concentration inhibited most but not all specific binding, curve extrapolated, read-out: Log KD α1A (apparent) (converted)): 26.9 µM
CN[C@H]1CC[C@@H](c2ccc(Cl)c(Cl)c2)c2ccccc21 [Sertraline]	–	–	–	–	1.91 µM	2.45 µM	3.55 µM	Selectivity ratio α1B vs α1D [1]: 1.4 fold; selectivity α1B vs α1D (human α1B-adrenoceptor): 1.4; Selectivity ratio α1A vs α1B (human α1A-adrenoceptor): 1.9 fold; Selectivity ratio α1A vs α1D (human α1A-adrenoceptor): 1.3 fold
Cc1ccc(/N=C/N(C)/C=N/c2ccc(C)cc2C)c(C)c1 [Amitraz]	>12	–	–	–	3.02 µM	–	–	Kd [1]: 8.32 µM; Selectivity ratio α1B vs α1D [1]: >12 fold; IC50 (human α1B-adrenoceptor; read-out: Log IC50 α1B (converted)): > 100 µM; Selectivity ratio α1A vs α1B (human α1A-adrenoceptor): >33 fold; Selectivity ratio α1A vs α1D (human α1A-adrenoceptor): 2.8 fold
CCC1(C2=NCCN2)Cc2ccccc2O1 (stereo not drawn) [Efaroxan]	5.0	5.0 fold	3.2 fold	16 fold	3.39 µM	10.7 µM	53.7 µM	–
